From US12194080B2, “Methods for identification, assessment, prevention, and treatment of metabolic disorders using PM20D1 and N-lipidated amino acids” (Dana-Farber Cancer Institute, Inc., priority 2015, dated 2025)

Assays:
[1] = test system: differentiated primary BAT cells; experiment: Cellular oxygen consumption rate (Seahorse XF24), differentiated primary BAT adipocytes; format: cell-based, mouse; details: 50 μM, in presence of oligomycin (1 μM)
Description: C2C12, U2O5, and 293A cells were cultured in DMEM with 10% FBS and pen/strep. Primary inguinal (iWAT) and brown (BAT) adipocytes were obtained as follows. The stromal-vascular fraction of inguinal (iWAT) pad from 4-12 week old male mice was dissected, minced, and digested for 45 min. at 37° C. in PBS containing 10 mM CaCl2, 2.4 U/ml dispase II (Roche), and 1.5 U/ml collagenase D (Roche). The stromal-vascular fraction of brown fat (BAT) pads from newborn (P1-P14) pups was dissected, minced, and digested for 45 min at 37° C. in PBS containing 1.3 mM CaCl2, 120 mM NaCl, 5 mM KCl, 5 mM glucose, 100 mM HEPES, 4% BSA, and 1.5 mg/ml collagenase B (Roche). […]
Cellular oxygen consumption rates were determined using an XF24 Extracellular Flux Analyzer (Seahorse Biosciences). […] C2C12 or U2OS cells were seeded at 30,000 or 50,000 cells/well, respectively in an XF24 cell culture microplate (V7-PS, Seahorse Bioscience) and analyzed the following day. Primary iWAT or BAT adipocytes were seeded at 15,000 cells/well, differentiation was induced the following day as described, and the cells were analyzed on day 5. […] For data expressed as a percentage of oligomycin-treated basal, the respiration at cycle 6 was normalized to 100%, and the maximum respiration at any time point between cycles 7 and 15 inclusive was used.

[2] = test system: U2OS cells; experiment: Cellular oxygen consumption rate (uncoupled respiration), U2OS cells; format: cell-based, human; details: 50 μM, after oligomycin 1 μM
Description: C2C12, U2O5, and 293A cells were cultured in DMEM with 10% FBS and pen/strep. Primary inguinal (iWAT) and brown (BAT) adipocytes were obtained as follows. The stromal-vascular fraction of inguinal (iWAT) pad from 4-12 week old male mice was dissected, minced, and digested for 45 min. at 37° C. in PBS containing 10 mM CaCl2, 2.4 U/ml dispase II (Roche), and 1.5 U/ml collagenase D (Roche). The stromal-vascular fraction of brown fat (BAT) pads from newborn (P1-P14) pups was dissected, minced, and digested for 45 min at 37° C. in PBS containing 1.3 mM CaCl2, 120 mM NaCl, 5 mM KCl, 5 mM glucose, 100 mM HEPES, 4% BSA, and 1.5 mg/ml collagenase B (Roche). Digested tissue was diluted with adipocyte culture media (DMEM/F-12, GlutaMAX™ supplement, Life Technologies, with 10% FBS and pen/strep) and centrifuged (600×g for 10 min.). The pellet was resuspended in 10 ml adipocyte culture media, strained through a 40 μm filter, and plated. Differentiation was induced by application of an adipogenic cocktail containing 5 μg/ml insulin (Sigma), 5 μM dexamethasone (Sigma), 250 μM isobutylmethylxanthine (Sigma), and 1 μM rosiglitazone (Cayman) for 2 days. Two days after induction, cells were maintained in adipocyte culture media containing 5 μg/ml insulin and 1 μM rosiglitazone.
Cellular oxygen consumption rates were determined using an XF24 Extracellular Flux Analyzer (Seahorse Biosciences). Oligomycin was purchased from EMD Millipore, and FCCP and rotenone were purchased from Sigma. C2C12 or U2OS cells were seeded at 30,000 or 50,000 cells/well, respectively in an XF24 cell culture microplate (V7-PS, Seahorse Bioscience) and analyzed the following day. Primary iWAT or BAT adipocytes were seeded at 15,000 cells/well, differentiation was induced the following day as described, and the cells were analyzed on day 5. On the day of analysis, the cells were washed once with Seahorse respiration buffer (8.3 g/1 DMEM, 1.8 g/l NaCl, 1 mM pyruvate, 20 mM glucose, pen/strep), placed in 0.5 ml Seahorse respiration buffer, and incubated in a CO2-free incubator for 1 hr. Port injection solutions were prepared as follows (final concentrations in assay in parentheses): 10 μM oligomycin (1 μM final), […] amino acid (50 μM final), 2 μM FCCP (0.2 μM final), and 30 μM rotenone (3 μM final). The Seahorse program was run as follows: basal measurement, 3 cycles; inject port A (oligomycin), 3 cycles; inject port B (compounds), 8 cycles; inject port C (FCCP), 3 cycles; inject port D (rotenone), 3 cycles. Each cycle consisted of mix 4 min, wait 0 min, and measure 2 min. For data expressed as a percentage of oligomycin-treated basal, the respiration at cycle 6 was normalized to 100%, and the maximum respiration at any time point between cycles 7 and 15 inclusive was used.

[3] = test system: primary inguinal fat cells, primary BAT cells, C2C12 cells, and U2OS cells; experiment: Uncoupled respiration cellular assays (variety of cell types); format: cell-based; details: N-acyl amino acids at 10-100 uM
[4] = test system: C2C12 cells; experiment: Mitochondrial membrane potential by TMRM fluorescence; format: cell-based, mouse; details: co-treatment with oligomycin 1 μM, 20 min; C18:1-Phe 50 μM, FCCP 0.4 μM
Description: Mitochondrial membrane potential was measured using tetramethylrhodamine methyl ester (TMRM, Life Technologies) fluorescence. C2C12 cells were plated in 6-well plates and grown to 80-90% confluence. Cells were then washed once with PBS and switched into Seahorse respiration buffer with the indicated compounds at the indicated concentrations: TMRM (100 nM), oligomycin (1 μM), FCCP (0.4 μM), and C18:1-Phe (10 or 50 μM). After 20 min. incubation at 37° C., the media was aspirated, cells were washed once with PBS, and trypsinized. Trypsinized cells were directly resuspended in PBS (total volume 300 μl), stored on ice, and analyzed on a FACSCanto™ II (BD Biosciences) with 20,000 events per sample.

[5] = test system: Diet induced obese (DIO) mice; experiment: Chronic daily i.p. administration of N-acyl amino acids to DIO mice (body weight, food intake, body composition, GTT); format: in vivo, mouse; details: chronic treatment, C18:1-Phe 30 or 50 mg/kg/day, C20:4-Gly 15 mg/kg/day, i.p.
Description: (§1) Animal experiments were performed according to procedures approved by the Beth Israel Deaconess Medical Center IACUC. Mice were maintained in 12 h light-dark cycles at 22° C. and fed a standard irradiated rodent chow diet. All experiments on wild-type mice were performed with male C57BL/6 mice purchased from Jackson Laboratories, except for the AAV experiments, which were performed with male C57BL/6 mice from Charles River. UCP1-KO (stock #017476) and 16-20 week DIO mice (stock #380050) were obtained from Jackson Laboratories. For AAV injection experiments, mice were gently warmed using a 250 W clear infrared heat lamp, immobilized, and injected via tail vein with 10^10 virus/mouse (diluted in saline) in a total volume of 100 μl/mouse. Where indicated, mice were placed on high-fat diet (60% fat, Research Diets). For cold exposure experiments, mice were group housed and placed at 4° C. for the indicated times. For the preparation of C18:1-Phe for in vivo injections, compounds were dissolved in 18:1:1 v/v/v saline:Kolliphor® EL (Sigma Aldrich):DMSO and sonicated until homogeneous. Mice were administered compounds at 5 μl/g body weight at the indicated doses. For all injection experiments, mice were mock injected with saline daily for 3 days prior to the start of the experiments. For glucose tolerance tests (GTTs), mice received their final dose of compound the day prior to the assay and were then fasted overnight. Glucose was administered at 1.5 g/kg.
(§2) Energy expenditure, O2 consumption, CO2 production, respiratory exchange ratio, total locomotor activity, and food intake measurements were made with a 16-cage Columbus Instruments Oxymax Comprehensive Lab Animal Monitoring System (CLAMS) at ambient room temperature (21-23° C.). Mice were acclimated for one day in metabolic cages prior to data collection. Whole-body composition was assessed with an EchoMRI™ 3-in-1 on conscious mice.

[6] = test system: Diet induced obese (DIO) mice; experiment: Indirect calorimetry (CLAMS) of high fat diet/DIO mice treated with N-acyl amino acids; format: in vivo, mouse
Description: as §1, §2

[7] = daily i.p.: C18:1-Leu 25, C18:1-Phe 30, C20:4-Gly 15 mg/kg/day

## CCCCCCCC/C=C\CCCCCCCC(=O)N[C@@H](Cc1ccccc1)C(=O)O [C18:1-Phe, Oleoyl-L-phenylalanine]
[1]
  maximal OCR versus DMSO at the same time point: 156%
  maximal OCR versus oligomycin-treated basal respiration: 198%
[2]
  uncoupling activity (uncoupled respiration): possessed uncoupling activity
[3]
  uncoupled respiration in cells: increased uncoupled respiration
[4]
  decrease of TMRM fluorescence: ~45%
[5]
  food intake: reduced food intake
[6]; 16-week high fat diet mice, 10 mg/kg daily, days 5 and 6
  movement: similar
[6]; [7]
  VO2: significantly augmented
  movement: no effects
